# Assay results from patent publication US8741589B2, “Monitoring two dimensions of diabetes pathogenesis” (The Regents of the University of California, priority 2005, dated 2014).
# Columns and labels:
# [1] = tested on: models of insulin resistance; experiment: Deuterated water production from deuterated glucose in models of insulin resistance, response to insulin-sensitizing therapies; format: in vivo; details: response to administration of insulin-sensitizing therapies in models of insulin resistance
# Text: Accordingly, the maintenance of normal absolute heavy water production in the face of insulin resistance was highly informative—“normal” heavy water production in this setting represented sufficiency (adequacy) of the pancreatic beta-cell response to the insulin resistance present. […] Full characterization of DM2 susceptibility and progression is thereby enabled through a simple, easily performed and widely usable test.
# [2] = tested on: pre-diabetes; details: metformin therapy, background statement; cited from earlier work
structure (smiles),measurement,setting,value
CN(C)C(=N)N=C(N)N [metformin],deuterated water production,[1],increased
same,pancreatic insulin secretion,[2],improve pancreatic insulin secretion
same,progression to DM2,[2],prevent progression to DM2
